Test results reported in patent US10175256B2, “Compositions and methods utilizing lysophosphatidylcholine scaffolds” (National University Of Singapore, priority 2013, dated 2019).
Several values for one entry are separate records, joined by “and”; a condition that tells them apart may be missing. Identical values can stand only once.

Assays:
mouse Mfsd2a [1] = biological target: T1, mouse Mfsd2a (Mus musculus, UniProt Q9DA75); assay: Cell-based free fatty acid transport/uptake in Mfsd2a expressing HEK293 cells (mass spectrometry, TLC; Table 1); conditions: replicate columns; for Amount of lipid species, mol percent in total phospholipid analysed / Amount of each lipid species normalized to internal standard, mol percent in total phospholipid analysed: Mfsd2a expressing HEK293 cells
T1 construct: expressed in transfected cells; host or cells: HEK293
T1 sequence (Q9DA75 1-534): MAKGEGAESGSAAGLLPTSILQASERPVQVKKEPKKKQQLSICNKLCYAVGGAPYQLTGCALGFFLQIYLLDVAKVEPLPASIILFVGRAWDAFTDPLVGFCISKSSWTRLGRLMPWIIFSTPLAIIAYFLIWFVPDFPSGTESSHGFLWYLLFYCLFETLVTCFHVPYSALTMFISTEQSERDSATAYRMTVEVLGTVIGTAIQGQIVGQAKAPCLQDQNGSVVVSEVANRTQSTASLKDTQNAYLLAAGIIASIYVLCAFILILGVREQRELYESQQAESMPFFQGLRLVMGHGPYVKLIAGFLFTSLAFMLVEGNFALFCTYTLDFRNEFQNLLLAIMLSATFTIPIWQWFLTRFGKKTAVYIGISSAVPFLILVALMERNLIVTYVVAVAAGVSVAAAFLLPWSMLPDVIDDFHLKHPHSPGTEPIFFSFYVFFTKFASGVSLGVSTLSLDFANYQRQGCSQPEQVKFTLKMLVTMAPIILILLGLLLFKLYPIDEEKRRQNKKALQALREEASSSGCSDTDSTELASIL
Procedure: (§1) FIG. 12. […] Std: free [^14C]-DHA. b. TLC analysis of phospholipids and neutral lipids of HEK293 cells transfected with mouse Mfsd2a and mutants after overnight incubation with 100 μM [^14C]-oleate. TLC protocol used was described in Methods. PC: phosphatidylcholine, PE: phosphatidylethanolamine, TAG: triglyceride, CE: cholesteryl ester.
(§2) For tissue lipid analysis, brain, liver, and heart of female WT and KO mice with age of 7-8 weeks born to HET mothers, and brains from e18.5 embryos were collected and immediately frozen with liquid nitrogen until extraction. Lipid extraction was followed by chloroform/methanol method. For cell-based free fatty acid transport, lipids from HEK293 cells expressing mouse Mfsd2a and mock controls after overnight treatment with 100 μM docosahexaenoic, arachidonic, eicosapentaenoic, alpha-linolenic, linoleic, oleic, palmitic acids in BSA complex were extracted using HIP buffer (hexane:iso-propanol 3:2, per volume) and dried under N2 gas. Phospholipid species were measured by high performance liquid chromatography (HPLC) 1100 system (Agilent) coupled with an Triple Quadrupole/Ion Trap mass spectrometer (4000Qtrap, Applied Biosystem). Levels of individual phospholipid species were analyzed as described previously and quantified using spiked internal standards that includes PC-14:0/14:0, PE-14:0/14:0, PS-14:0/14:0 (Avanti Polar Lipids, Alabaster, Ala., USA), and dioctanoyl PI (Echelon Biosciences, Inc., Salt Lake City, Utah, USA).

mouse Mfsd2a [2] = assay: as above; conditions: MS, replicate columns; for Amount of each lipid species normalized to internal standard, mol percent in total phospholipid analysed / Amount of lipid species, mol percent in total phospholipid analysed: mock HEK293 cells
Procedure: as §1, §2

[3] = Mfsd2a expressing HEK293 cells incubated with 100 uM Arachidonic fatty acid/BSA complex overnight, MS
[4] = 100 uM Alpha-linolenic fatty acid/BSA complex overnight
[5] = 100 uM Linoleic fatty acid/BSA complex overnight
[6] = 100 uM Docosahexaenoic acid/BSA complex overnight, MS
[7] = 100 uM Eicosapentaenoic acid/BSA complex overnight, MS
[8] = 100 uM Oleic fatty acid/BSA complex overnight, MS
[9] = mock HEK293 cells incubated with 100 uM Arachidonic fatty acid/BSA complex overnight
[10] = 100 uM Docosahexaenoic acid/BSA complex overnight
[11] = 100 uM Eicosapentaenoic acid/BSA complex overnight
[12] = 100 uM Oleic fatty acid/BSA complex overnight

Compound: CCCCCCCCCCCCCCCC(=O)OC[C@@H](O)COP(=O)(O)OCCN [LysoPE16:0]
- Amount of each lipid species, mol percent in total phospholipid analysed (mouse Mfsd2a [1]; [3]): 0.1468 mol percent and 0.08379 mol percent and 0.1077 mol percent and 0.1337 mol percent
- Amount of lipid species, mol percent in total phospholipid analysed (mouse Mfsd2a [1]; [4]): 0.1381 mol percent and 0.2428 mol percent and 0.2355 mol percent and 0.07619 mol percent
- Amount of lipid species, mol percent in total phospholipid analysed (mouse Mfsd2a [1]; [5]): 0.03967 mol percent and 0.1018 mol percent and 0.06313 mol percent and 0.02483 mol percent
- Amount of each lipid species normalized to internal standard, mol percent in total phospholipid analysed (mouse Mfsd2a [1]; [6]): 0.08329 mol percent and 0.03847 mol percent and 0.07102 mol percent and 0.05717 mol percent
- Amount of each lipid species normalized to internal standard, mol percent in total phospholipid analysed (mouse Mfsd2a [1]; [7]): 0.09357 mol percent and 0.09693 mol percent and 0.09655 mol percent and 0.07626 mol percent
- Amount of lipid species, mol percent in total phospholipid analysed (mouse Mfsd2a [1]; [8]): 0.04601 mol percent and 0.01705 mol percent and 0.1151 mol percent and 0.08973 mol percent
- Amount of each lipid species, mol percent in total phospholipid analysed (mouse Mfsd2a [2]; [9]): 0.08991 mol percent and 0.08319 mol percent and 0.0827 mol percent
- Amount of each lipid species normalized to internal standard, mol percent in total phospholipid analysed (mouse Mfsd2a [2]; [10]): 0.06318 mol percent and 0.083 mol percent and 0.06994 mol percent
- Amount of each lipid species normalized to internal standard, mol percent in total phospholipid analysed (mouse Mfsd2a [2]; [11]): 0.06426 mol percent and 0.1796 mol percent and 0.1079 mol percent
- Amount of lipid species, mol percent in total phospholipid analysed (mouse Mfsd2a [2]; [12]): 0.056 mol percent and 0.03411 mol percent and 0.06706 mol percent

Compound: CCCCCCCCCCCCCCCCCC(=O)OC[C@@H](O)COP(=O)(O)OCCN [LysoPE18:0]
- Amount of each lipid species, mol percent in total phospholipid analysed (mouse Mfsd2a [1]; [3]): 0.2569 mol percent and 0.2304 mol percent and 0.2461 mol percent and 0.117 mol percent
- Amount of lipid species, mol percent in total phospholipid analysed (mouse Mfsd2a [1]; [4]): 0.3947 mol percent and 0.2832 mol percent and 0.2186 mol percent and 0.3429 mol percent
- Amount of lipid species, mol percent in total phospholipid analysed (mouse Mfsd2a [1]; [5]): 0.1058 mol percent and 0.1018 mol percent and 0.1894 mol percent and 0.0869 mol percent
- Amount of each lipid species normalized to internal standard, mol percent in total phospholipid analysed (mouse Mfsd2a [1]; [6]): 0.1666 mol percent and 0.2308 mol percent (2×) and 0.1334 mol percent
- Amount of each lipid species normalized to internal standard, mol percent in total phospholipid analysed (mouse Mfsd2a [1]; [7]): 0.1092 mol percent and 0.307 mol percent and 0.1931 mol percent and 0.2135 mol percent
- Amount of lipid species, mol percent in total phospholipid analysed (mouse Mfsd2a [1]; [8]): 0.09201 mol percent and 0.1193 mol percent and 0.148 mol percent and 0.05384 mol percent
- Amount of each lipid species, mol percent in total phospholipid analysed (mouse Mfsd2a [2]; [9]): 0.1798 mol percent and 0.2163 mol percent and 0.1654 mol percent
- Amount of each lipid species normalized to internal standard, mol percent in total phospholipid analysed (mouse Mfsd2a [2]; [10]): 0.2527 mol percent and 0.249 mol percent and 0.1539 mol percent
- Amount of each lipid species normalized to internal standard, mol percent in total phospholipid analysed (mouse Mfsd2a [2]; [11]): 0.2356 mol percent and 0.2515 mol percent and 0.1233 mol percent
- Amount of lipid species, mol percent in total phospholipid analysed (mouse Mfsd2a [2]; [12]): 0.168 mol percent and 0.1023 mol percent and 0.04024 mol percent

Compound: CCCCCCCCCCCCCCCCOC[C@@H](O)COP(=O)([O-])OCC[N+](C)(C)C [LysoPC16:0e]
- Amount of each lipid species, mol percent in total phospholipid analysed (mouse Mfsd2a [1]; [3]): 0.008218 mol percent and 0.00827 mol percent and 0.009441 mol percent and 0.01026 mol percent
- Amount of lipid species, mol percent in total phospholipid analysed (mouse Mfsd2a [1]; [4]): 0.004349 mol percent and 0.003802 mol percent and 0.005532 mol percent and 0.004823 mol percent
- Amount of lipid species, mol percent in total phospholipid analysed (mouse Mfsd2a [1]; [5]): 0.004905 mol percent and 0.004227 mol percent and 0.005291 mol percent and 0.006453 mol percent
- Amount of each lipid species normalized to internal standard, mol percent in total phospholipid analysed (mouse Mfsd2a [1]; [6]): 0.005111 mol percent and 0.004575 mol percent and 0.004499 mol percent and 0.004664 mol percent
- Amount of each lipid species normalized to internal standard, mol percent in total phospholipid analysed (mouse Mfsd2a [1]; [7]): 0.005369 mol percent and 0.005332 mol percent and 0.003584 mol percent and 0.004376 mol percent
- Amount of lipid species, mol percent in total phospholipid analysed (mouse Mfsd2a [1]; [8]): 0.002972 mol percent and 0.00261 mol percent and 0.002228 mol percent and 0.001403 mol percent
- Amount of each lipid species, mol percent in total phospholipid analysed (mouse Mfsd2a [2]; [9]): 0.008219 mol percent and 0.01198 mol percent and 0.009457 mol percent
- Amount of each lipid species normalized to internal standard, mol percent in total phospholipid analysed (mouse Mfsd2a [2]; [10]): 0.005025 mol percent and 0.003881 mol percent and 0.00548 mol percent
- Amount of each lipid species normalized to internal standard, mol percent in total phospholipid analysed (mouse Mfsd2a [2]; [11]): 0.00417 mol percent and 0.00451 mol percent and 0.003651 mol percent
- Amount of lipid species, mol percent in total phospholipid analysed (mouse Mfsd2a [2]; [12]): 0.003153 mol percent and 0.001998 mol percent and 0.003294 mol percent

Compound: CCCCCCCCCCCCCCCC(=O)OC[C@@H](O)COP(=O)(O)O[C@@H]1[C@H](O)[C@H](O)[C@@H](O)[C@H](O)[C@H]1O [LP116:0]
- Amount of each lipid species normalized to internal standard, mol percent in total phospholipid analysed (mouse Mfsd2a [1]; [6]): 0.003896 mol percent and 0.00362 mol percent and 0.004663 mol percent and 0.002596 mol percent
- Amount of each lipid species normalized to internal standard, mol percent in total phospholipid analysed (mouse Mfsd2a [2]; [10]): 0.003621 mol percent and 0.004425 mol percent and 0.003813 mol percent

Compound: CCCCCCCCCCCCCCCC/C=C\OC[C@@H](O)COP(=O)(O)OCCN [LysoPE18:0p]
- Amount of each lipid species, mol percent in total phospholipid analysed (mouse Mfsd2a [1]; [3]): 0.5873 mol percent and 0.5865 mol percent and 0.323 mol percent and 0.5348 mol percent
- Amount of each lipid species, mol percent in total phospholipid analysed (mouse Mfsd2a [2]; [9]): 0.6519 mol percent and 0.416 mol percent and 0.215 mol percent

Compound: CCCCCCCCCCCCCCCCCC/C=C\OC[C@@H](O)COP(=O)(O)OCCN [LysoPE20:0p]
- Amount of each lipid species, mol percent in total phospholipid analysed (mouse Mfsd2a [1]; [3]): 0.3303 mol percent and 0.2723 mol percent and 0.1846 mol percent and 0.2172 mol percent
- Amount of each lipid species, mol percent in total phospholipid analysed (mouse Mfsd2a [2]; [9]): 0.2922 mol percent and 0.183 mol percent and 0.1158 mol percent

Compound: CCCCCCCCCCCCCCCC(=O)OC[C@@H](O)COP(=O)(O)OC1[C@H](O)[C@H](O)C(O)[C@H](O)[C@H]1O (some centres unmarked) [LPI16:0]
- Amount of each lipid species, mol percent in total phospholipid analysed (mouse Mfsd2a [1]; Mfsd2a expressing HEK293 cells incubated with 100 uM Eicosapentaenoic fatty acid/BSA complex overnight, MS): 0.00427 mol percent and 0.002996 mol percent and 0.00331 mol percent and 0.004891 mol percent
- Amount of lipid species, mol percent in total phospholipid analysed (mouse Mfsd2a [1]; [4]): 0.002614 mol percent and 0.002235 mol percent and 0.003861 mol percent and 0.003103 mol percent
- Amount of lipid species, mol percent in total phospholipid analysed (mouse Mfsd2a [1]; 100 uM Linoleic fatty acid/BSA complex overnight, MS): 0.002421 mol percent and 0.002583 mol percent and 0.004097 mol percent and 0.003665 mol percent
- Amount of lipid species, mol percent in total phospholipid analysed (mouse Mfsd2a [1]; [8]): 0.003305 mol percent and 0.002531 mol percent and 0.002415 mol percent and 0.003238 mol percent
- Amount of each lipid species, mol percent in total phospholipid analysed (mouse Mfsd2a [2]; mock HEK293 cells incubated with 100 uM Eicosapentaenoic fatty acid/BSA complex overnight): 0.004685 mol percent and 0.004731 mol percent and 0.003589 mol percent
- Amount of lipid species, mol percent in total phospholipid analysed (mouse Mfsd2a [2]; [5]): 0.003029 mol percent and 0.004291 mol percent and 0.00407 mol percent
- Amount of lipid species, mol percent in total phospholipid analysed (mouse Mfsd2a [2]; [12]): 0.003369 mol percent and 0.003584 mol percent and 0.002627 mol percent

Compound: CCCCCCCCCCCCCCCCCC/C=C\OC[C@@H](O)COP(=O)(O)OCCN [Lyso PE20:0p]
- Amount of lipid species, mol percent in total phospholipid analysed (mouse Mfsd2a [1]; [4]): 0.4144 mol percent and 0.2832 mol percent and 0.3195 mol percent and 0.1905 mol percent
- Amount of lipid species, mol percent in total phospholipid analysed (mouse Mfsd2a [1]; [5]): 0.1851 mol percent and 0.2714 mol percent and 0.2999 mol percent and 0.1862 mol percent
- Amount of each lipid species normalized to internal standard, mol percent in total phospholipid analysed (mouse Mfsd2a [1]; [6]): 0.1999 mol percent and 0.2885 mol percent and 0.2131 mol percent and 0.1906 mol percent
- Amount of each lipid species normalized to internal standard, mol percent in total phospholipid analysed (mouse Mfsd2a [1]; [7]): 0.1715 mol percent and 0.2585 mol percent and 0.309 mol percent and 0.2898 mol percent
- Amount of lipid species, mol percent in total phospholipid analysed (mouse Mfsd2a [1]; [8]): 0.184 mol percent and 0.3068 mol percent and 0.1973 mol percent and 0.2871 mol percent
- Amount of each lipid species normalized to internal standard, mol percent in total phospholipid analysed (mouse Mfsd2a [2]; [10]): 0.1737 mol percent and 0.2656 mol percent and 0.1958 mol percent
- Amount of each lipid species normalized to internal standard, mol percent in total phospholipid analysed (mouse Mfsd2a [2]; [11]): 0.4498 mol percent and 0.1976 mol percent and 0.1696 mol percent
- Amount of lipid species, mol percent in total phospholipid analysed (mouse Mfsd2a [2]; [12]): 0.1867 mol percent and 0.2217 mol percent and 0.228 mol percent

Compound: CCCCCCCCCCCCCCCC(=O)OC[C@@H](O)COP(=O)(O)OC1[C@H](O)[C@H](O)C(O)[C@H](O)[C@H]1O (some centres unmarked) [LPI 16:0]
- Amount of each lipid species, mol percent in total phospholipid analysed (mouse Mfsd2a [1]; [3]): 0.003583 mol percent and 0.003359 mol percent and 0.003156 mol percent and 0.002319 mol percent
- Amount of each lipid species, mol percent in total phospholipid analysed (mouse Mfsd2a [2]; [9]): 0.003611 mol percent and 0.003895 mol percent and 0.00338 mol percent
